Experimental data from patent US20170266186A1, “USE OF INHIBITORS OF BRUTON'S TYROSINE KINASE (BTK)” (Pharmacyclics LLC, priority 2011, published 2017).

Columns and labels:
[1] = system: cell lines; assay: combination of PCI-32765 with other drugs in cell lines; type: cell-based
[2] = system: DLBCL xenograft; assay: combination drug testing in a DLBCL xenograft; type: in vivo; settings: initial experiment in a DLBCL xenograft

Structure (SMILES) | interaction with PCI-32765 in combination [1] | interaction with PCI-32765 in combination [2]
CN(C)Cc1c(C(=O)NCCOc2ccc(C(=O)NO)cc2)oc2ccccc12 [3-((dimethylamino)methyl)-N-(2-(4-(hydroxycarbamoyl)phenoxy)ethyl)benzofuran-2-carboxamide] | weak synergy | –
COc1cc(Nc2ncc(F)c(Nc3ccc4c(n3)NC(=O)C(C)(C)O4)n2)cc(OC)c1OC [Compound R-406] | weak synergy | –
Cn1c(CCCC(=O)O)nc2cc(N(CCCl)CCCl)ccc21 [bendamustine] | weak synergy | –
CC(C)C[C@H](NC(=O)[C@H](Cc1ccccc1)NC(=O)c1cnccn1)B(O)O [bortezomib] | weak synergy | greater than additivity
N.N.O=C([O-])C1(C(=O)[O-])CCC1.[Pt+2] [carboplatin] | additivity | –
COc1cccc2c1C(=O)c1c(O)c3c(c(O)c1C2=O)C[C@@](O)(C(=O)CO)C[C@@H]3O[C@H]1C[C@H](N)[C@H](O)[C@H](C)O1 [doxorubicin] | additivity | –
Nc1ccn([C@@H]2O[C@H](CO)[C@@H](O)C2(F)F)c(=O)n1 [gemcitabine] | weak synergy | –
Nc1cccc2c1CN(C1CCC(=O)NC1=O)C2=O (stereo not shown) [lenalidomide] | weak synergy | –
CNC(=O)c1cc(Oc2ccc(NC(=O)Nc3ccc(Cl)c(C(F)(F)F)c3)cc2)ccn1 [sorafenib] | weak synergy | –
CC(=O)O[C@H]1C(=O)[C@@]2(C)[C@H]([C@H](OC(=O)c3ccccc3)[C@]3(O)C[C@H](OC(=O)[C@H](O)[C@@H](NC(=O)c4ccccc4)c4ccccc4)C(C)=C1C3(C)C)[C@]1(OC(C)=O)CO[C@@H]1C[C@@H]2O [taxol] | additivity | –
CO[C@H]1C[C@@H]2CC[C@@H](C)[C@@](O)(O2)C(=O)C(=O)N2CCCC[C@H]2C(=O)O[C@H]([C@H](C)C[C@@H]2CC[C@@H](OC(=O)C(C)(CO)CO)[C@H](OC)C2)CC(=O)[C@H](C)/C=C(\C)[C@@H](O)[C@@H](OC)C(=O)[C@H](C)C[C@H](C)/C=C/C=C/C=C/1C [temsirolimus] | additivity | –
CC[C@]1(O)C[C@H]2CN(CCc3c([nH]c4ccccc34)[C@@](C(=O)OC)(c3cc4c(cc3OC)N(C=O)[C@H]3[C@@](O)(C(=O)OC)[C@H](OC(C)=O)[C@]5(CC)C=CCN6CC[C@]43[C@@H]65)C2)C1 [vincristine] | additivity | –
